Test results taken from patent EP2112152A1, “Dihydropteridinones as Plk Inhibitors” (GPC Biotech AG, priority 2008, dated 2009).

What was measured:
Format in all cases: cell-based
Plk1 = Plk1 (Homo sapiens, UniProt P53350); assay: Cellular Plk1 kinase activity: nucleophosmin (B23) Ser4 phosphorylation in HCT116 cells (MSD electrochemiluminescence); design: host or cells: HCT116; conditions: 100 ng/ml nocodazole, 4 hours after compound addition, read-out: Biochemical IC50 Nucleophosmin assay
Description: We observed the surprising finding that compounds of the invention were able to penetrate cell membranes and retained their activity as Plk1 inhibitors against native Plk1 expressed within living cancer cells.
Cellular Plk1 kinase activity was measured by quantification of nucleophosmin (B23) Ser4 phosphorylation in a cancer cell line. Nucleophosmin (B23) Ser4 is phosphorylated by Plk1, and this phosphorylation can be specifically detected by cross-reactivity of a phospho-Mek1/2 antibody that is able to recognizes a mitotic-specific phosphorylated form of nucleophosmin (B23) in a nocodazole dependent way (Zhang, H., Shi, X., Paddon, H., Hampong, M., Dai, W., and Pelech, S. (2004) B23/Nuleophosmin Serin 4 Phosphorylation Mediates Mitotic Functions of Polo-like Kinase 1. J. Biol. Chem., 279(34), 35726-35734).
Briefly, HCT116 cells (ATCC, Order No. CCL-247) were plated in 96 well dishes 24 hours prior to nocodazole treatment at 25 000 cells per well. Cells were then treated with 100 ng/ml nocodazole (Sigma-Aldrich, # M1404). 20 hours after nocodazole treatment, cells were exposed to the test compounds at various concentrations appropriate to determine an IC50. 4 hours after compound addition, medium was carefully removed and 120 µl of Complete Tris Lysis Buffer (R60TX; MSD, Gaithersburg MD) was added to each well. Samples were then stored at -20°C.
The level of nucleophosmin (B23) Ser4 phosphorylation in these cell lysis samples was estimated by electrochemiluminescence detection using the Meso Scale Discovery ("MSD") Technology Platform (MSD, Gaithersburg MD). The protocol used was as recommended by the manufacturer with the use of a phospho-Mek1/2 antibody (Cell Signalling, #9121) as primary antibody, and is as follows.
The cell lysates were thawed at room temperature and 40 µl were incubated on 96-well MULTI-ARRAY High Bind plates (L11XB; MSD) for 1.5 - 2 hours at room temperature. The supernatants were then removed and 150 µl of a 5% (w/v) solution of Blocker A (R93AA; MSD) in Tris Wash Buffer (R61TX; MSD) were added to each well. The plates were then incubated for 1 hour at room temperature before removal of the Blocker A solution and washed 4 times with 200 µl Tris Wash Buffer. 25 µl primary antibody (anti-phospho-MEK1/2, Cell Signalling, #9121, rabbit polyclonal), diluted 1:250 in a 1% (w/v) solution of Blocker A in Tris Wash Buffer, were added to each well. The plates were then incubated for 1 hour at room temperature before removal of the antibody solution and washed 4 times with 200 µl Tris Wash Buffer. Then, 25 µl of labelled secondary antibody (SULFO-TAG Goat Anti-Rabbit IgGAntibody (R32AB; MSD), diluted 1:500 in a 1% (w/v) solution of Blocker A in Tris Wash Buffer) were added to each well. The plates were then incubated for 1 hour at room temperature before removal of the antibody solution and washed 4 times with 200 µl Tris Wash Buffer. Then, […] of 1x Read Buffer T (R92TC; MSD) were carefully added to each well and the plates were quantitatively detected for each well with a SECTOR™ Imager 6000 (MSD).
Inhibitory activity of the compounds (IC) was calculated as % inhibition of nucleophosmin (B23) Ser4 phosphorylation compared to cells not treated with nocodazole.

IMR-90 = assay: SRB cell proliferation assay, IMR-90; conditions: Homo sapiens, 72 hours, SRB assay, slow cycling cell line, read-out: CELLULAR IC50 IMR-90
Description: (§1) We observed the surprising finding that compounds of the invention were useful in inhibiting proliferation of tumor cell lines (see Table 3).
(§2) Cells were exposed to the test compounds at various concentrations appropriate to determine an IC50 for 72 hours. Cell proliferation was measured using the SRB assay according to Shekan et al (J Natl Cancer Inst (1990) 82, 1107-112) in order to estimate the IC50 values shown in Table 3. Briefly, cells were plated in 96 well dishes 24 hours prior to compound addition at the densities specified in Table 5.1. The assay was terminated with the addition of cold TCA to a final concentration of 10% after growth medium has been removed and the plates were incubated over night at 4°C. The plates were then washed 5 times with water and 100µl of a Sulforhodamine B solution (4%) was added to each well. The plates were then incubated for 10 minutes at room temperature before removal of unbound dye by washing with 1% acetic acid. The bound dye was solubilised with 10 mM Trizma base and the absorbance read at OD520.
(§3) Inhibitory activity of the compounds (IC) was calculated as % inhibition of cell proliferation compared to cells treated with the solvent (DMSO).
(§4) Table 8.1: 18-Cell Line Panel

HCT 116 = assay: SRB cell proliferation assay, HCT 116; conditions: Homo sapiens, HCT-116, 72 h, 72 hours, SRB assay; read-out: CELLULAR IC50 HCT 116
Description: as §1, §2, §3, §4

HT-29 = assay: SRB cell proliferation assay, HT-29; conditions: Homo sapiens, HT-29, 72 h, 72 hours, SRB assay; read-out: CELLULAR IC50 HT-29
Description: as §1, §2, §3, §4

Chain of Plk1 (P53350 whole entry, species assumed): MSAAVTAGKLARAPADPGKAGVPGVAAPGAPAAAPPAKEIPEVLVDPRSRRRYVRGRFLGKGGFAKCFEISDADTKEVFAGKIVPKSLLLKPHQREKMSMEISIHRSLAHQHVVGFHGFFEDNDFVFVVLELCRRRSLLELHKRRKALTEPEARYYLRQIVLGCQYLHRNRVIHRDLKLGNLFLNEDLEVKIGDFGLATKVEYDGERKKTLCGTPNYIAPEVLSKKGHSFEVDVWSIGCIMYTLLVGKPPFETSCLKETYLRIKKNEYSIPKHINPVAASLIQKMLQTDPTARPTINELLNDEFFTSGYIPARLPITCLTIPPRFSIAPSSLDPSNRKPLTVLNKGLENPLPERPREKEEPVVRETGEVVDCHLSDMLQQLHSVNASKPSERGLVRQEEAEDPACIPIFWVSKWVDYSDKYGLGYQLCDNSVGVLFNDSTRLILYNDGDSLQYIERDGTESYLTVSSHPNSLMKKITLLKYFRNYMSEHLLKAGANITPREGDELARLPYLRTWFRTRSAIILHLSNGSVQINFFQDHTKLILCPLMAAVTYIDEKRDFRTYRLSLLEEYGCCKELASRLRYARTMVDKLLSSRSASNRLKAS

Compound | IC50 (Plk1) [nM] | IC50 (IMR-90) [nM] | IC50 (HCT 116) [nM] | IC50 (HT-29) [nM]
4-(8-Dimethylamino-7-ethyl-5-methyl-6-oxo-5,6,7,8-tetrahydro-pteridin-2-ylamino)-3-methoxy-N-(4-piperidin-1-ylmethyl-phenyl)-benzamide [Compound 10] | < 100 |  |  | 
CCC1C(=O)N(C)c2cnc(Nc3ccc(C(=O)NCCN4CCCC4)cc3OC)nc2N1N(C)C (stereo not drawn) [Compound 2, 4-(8-Dimethylamino-7-ethyl-5-methyl-6-oxo-5,6,7,8-tetrahydro-pteridin-2-ylamino)-3-methoxy-N-(2-pyrrolidin-1-yl-ethyl)-benzamide] | < 100 | > 1000 | < 1000 | < 1000
CCC1C(=O)N(C)c2cnc(Nc3ccc(C(=O)N[C@H]4CC[C@H](N5CCN(CC6CC6)CC5)CC4)cc3OC)nc2N1N(C)CC(C)C (relative stereo) [Compound 24, N-[trans-4-(4-Cyclopropylmethyl-piperazin-1-yl)-cyclohexyl]-4-[7-ethyl-8-(isobutyl-methyl-amino)-5-methyl-6-oxo-5,6,7,8-tetrahydro-pteridin-2-ylamino]-3-methoxy-benzamide] | < 100 | > 1000 | < 1000 | < 1000
CCC1C(=O)N(C)c2cnc(Nc3ccc(C(=O)N[C@H]4CC[C@H](N5CCN(CC6CC6)CC5)CC4)cc3OC)nc2N1N(C)CC1CCCC1 (relative stereo) [Compound 28, 4-[8-(Cyclopentylmethyl-methyl-amino)-7-ethyl-5-methyl-6-oxo-5,6,7,8-tetrahydro-pteridin-2-ylamino]-N-[trans-4-(4-cyclopropylmethyl-piperazin-1-yl)-cyclohexyl]-3-methoxy-benzamide] | < 100 | > 1000 | < 1000 | < 1000
4-[8-(Cyclopentylmethyl-methyl-amino)-7-ethyl-5-methyl-6-oxo-5,6,7,8-tetrahydro-pteridin-2-ylamino]-N-(1-ethylpiperidin-4-ylmethyl)-3-methoxy-benzamide [Compound 29] | < 100 |  |  | 
N-(2-Diethylamino-ethyl)-4-(8-dimethylamino-7-ethyl-5-methyl-6-oxo-5,6,7,8-tetrahydro-pteridin-2-ylamino)-3-methoxy-benzamide [Compound 5] | < 100 |  |  | 
4-(8-Dimethylamino-7-ethyl-5-methyl-6-oxo-5,6,7,8-tetrahydro-pteridin-2-ylamino)-3-methoxy-N-(2-piperidin-1-yl-ethyl)-benzamide [Compound 6] | < 100 |  |  | 
CCC1C(=O)N(C)c2cnc(Nc3ccc(C(=O)NC4CCN(C)CC4)cc3OC)nc2N1N(C)C (single isomer, unassigned) [Compound 37, 4-(8-dimethylamino-7-ethyl-5-methyl-6-oxo-5,6,7,8-tetrahydro-pteridin-2-ylamino)-3-methoxy-N-(1-methyl-piperidin-4-yl)-benzamide] | < 100 |  |  | 
N-(2-Diisopropylamino-ethyl)-4-(8-dimethylamino-7-ethyl-5-methyl-6-oxo-5,6,7,8-tetrahydro-pteridin-2-ylamino)-3-methoxy-benzamide [Compound 7] | < 100 |  |  | 
4-(8-Dimethylamino-7-ethyl-5-methyl-6-oxo-5,6,7,8-tetrahydro-pteridin-2-ylamino)-3-methoxy-N-[4-(4-methyl-piperazin-1-yl)-phenyl]-benzamide [Compound 8] | < 100 |  |  | 
4-[8-(Cyclobutylmethyl-methyl-amino)-7-ethyl-5-methyl-6-oxo-5,6,7,8-tetrahydro-pteridin-2-ylamino]-N-[trans-4-(4-cyclopropylmethyl-piperazin-1-yl)-cyclohexyl]-3-methoxy-benzamide [Compound 35] | < 500 |  |  | 
4-(8-Dimethylamino-7-ethyl-5-methyl-6-oxo-5,6,7,8-tetrahydro-pteridin-2-ylamino)-N-[4-(4-ethyl-piperazin-1-yl)-phenyl]-3-methoxy-benzamide [Compound 9] | < 100 |  |  | 
